Patent publication US9302999B2, “Substituted triazoles as herbicides” (E. I. DU PONT DE NEMOURS AND COMPANY, priority 2012, dated 2016)

How the values were obtained:
Type in all cases: in vivo
[1] = system: ryegrass, Italian (Italian ryegrass, Lolium multiflorum); assay: Test E pre-/postemergence: ryegrass, Italian; details: scale 0 to 100
Text: (§1) Seeds of plant species selected from corn (Zea mays), soybean (Glycine max), velvetleaf (Abutilon theophrasti), lambsquarters (Chenopodium album), poinsettia, wild (wild poinsettia, Euphorbia heterophylla), pigweed, palmer (palmer pigweed, Amaranthus palmeri), waterhemp (common waterhemp, Amaranthus rudis), smartweed (ladysthumb smartweed, Polygonum persicaria), surinam grass (Brachiaria decumbens), crabgrass, large (large crabgrass, Digitaria sanguinalis), crabgrass, Brazil (Brazilian crabgrass, Digitaria horizontalis), panicum, fall (fall panicum, Panicum dichotomiflorum), foxtail, giant (giant foxtail, Setaria faberii), foxtail, green (green foxtail, Setaria viridis), goosegrass (Eleusine indica), johnsongrass (Sorghum halepense), ragweed (common ragweed, Ambrosia elation), barnyardgrass (Echinochloa crus-galli), sandbur (southern sandbur, Cenchrus echinatus), arrowleaf sida (Sida rhombifolia), ryegrass, Italian (Italian ryegrass, Lolium multiflorum), dayflower, (VA) (Virginia dayflower, Commelina virginica), field bindweed (Convolvulus arvensis), cocklebur (common cocklebur, Xanthium strumarium), morningglory (Ipomoea coccinea), nightshade (eastern black nightshade, Solanum ptycanthum), kochia (Kochia scoparia), nutsedge, yellow (yellow nutsedge, Cyperus esculentus) and beggarticks (hairy beggarticks, Bidens pilosa) were planted into a silt loam soil and treated preemergence with test chemicals formulated in a non-phytotoxic solvent mixture which included a surfactant. At the same time, plants selected from these crop and weed species were planted in pots containing a growing medium comprising spaghnum peat moss, vermiculite, wetting agent and starter nutrients and treated with postemergence applications of some of the test chemicals formulated in the same manner. Plants ranged in height from 2 to 18 cm for postemergence treatments (1- to 4-leaf stage).
(§2) Treated plants and controls were maintained in a greenhouse for 14 to 21 days, after which time all species were compared to controls and visually evaluated. Plant response ratings, summarized in Table E, are based on a scale of 0 to 100 where 0 is no effect and 100 is complete control. A dash (-) response means no test result.

[2] = system: johnsongrass (Sorghum halepense); assay: Test E pre-/postemergence: johnsongrass; details: Preemergence, scale 0 to 100
Method in brief: (§3)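 Preemergence: seeds sown in silt loam soil and sprayed with compound in non-phytotoxic solvent containing surfactant. Postemergence: plants grown in peat/vermiculite medium, treated at 2–18 cm (1- to 4-leaf stage). Greenhouse 14–21 days; visual rating vs untreated controls, 0 (no effect) to 100 (complete control).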

[3] = system: surinam grass (Brachiaria decumbens); assay: Test E pre-/postemergence: surinam grass; details: Preemergence, scale 0 to 100
Text: as §1, §2

[4] = system: arrowleaf sida (Sida rhombifolia); assay: Test E pre-/postemergence: arrowleaf sida; details: scale 0 to 100
Method in brief: as §3

[5] = system: pigweed, palmer (palmer pigweed, Amaranthus palmeri); assay: Test E pre-/postemergence: pigweed, palmer; details: scale 0 to 100
Text: as §1, §2

[6] = system: barnyardgrass (Echinochloa crus-galli); assay: Test E pre-/postemergence: barnyardgrass; details: scale 0 to 100
Method in brief: as §3

[7] = system: panicum, fall (fall panicum, Panicum dichotomiflorum); assay: Test E pre-/postemergence: panicum, fall; details: scale 0 to 100
Text: as §1, §2

[8] = system: beggarticks (hairy beggarticks, Bidens pilosa); assay: Test E pre-/postemergence: beggarticks; details: scale 0 to 100
Method in brief: as §3

[9] = system: crabgrass, Brazil (Brazilian crabgrass, Digitaria horizontalis); assay: Test E pre-/postemergence: crabgrass, Brazil; details: scale 0 to 100
Text: as §1, §2

Q: How did the “Plant response rating: Ryegrass, Italian” value ([1]; Postemergence, 8 g ai/ha) turn out when `Cc1nn(-c2ccc(C(F)(F)F)cc2)nc1Oc1ccnc(C(F)(F)F)c1` [Compound 120] was run?
A: Its value is 0.

Q: And the “Plant response rating: Ryegrass, Italian” value ([1]; Postemergence, 16 g ai/ha)?
A: The value was 10.

Q: What about the “Plant response rating: Ryegrass, Italian” value ([1]; Postemergence, 31 g ai/ha) of the same compound?
A: Its value is 15.

Q: And the “Plant response rating: Ryegrass, Italian” value ([1]; Postemergence, 62 g ai/ha)?
A: Its value is 20.

Q: What about the “Plant response rating: Ryegrass, Italian” value ([1]; Postemergence, 125 g ai/ha) of the same compound?
A: The value was 35.

Q: And the “Plant response rating: Ryegrass, Italian” value ([1]; Preemergence, 16 g ai/ha)?
A: Its value is 0.

Q: And the “Plant response rating: Ryegrass, Italian” value ([1]; Preemergence, 31 g ai/ha)?
A: Its value is 35.

Q: And the “Plant response rating: Ryegrass, Italian” value ([1]; Preemergence, 62 g ai/ha)?
A: The value was 35.

Q: And the “Plant response rating: Ryegrass, Italian” value ([1]; Preemergence, 125 g ai/ha)?
A: The value was 90.

Q: What about the “Plant response rating: Ryegrass, Italian” value ([1]; Preemergence, 250 g ai/ha) of the same compound?
A: The value was 98.

Q: What about the “Plant response rating: Johnsongrass” value ([2]; 16 g ai/ha) of the same compound?
A: Its value is 15.

Q: And the “Plant response rating: Johnsongrass” value ([2]; 31 g ai/ha)?
A: The value was 15.

Q: And the “Plant response rating: Johnsongrass” value ([2]; 62 g ai/ha)?
A: The value was 15.

Q: And the “Plant response rating: Johnsongrass” value ([2]; 125 g ai/ha)?
A: Its value is 35.

Q: What about the “Plant response rating: Johnsongrass” value ([2]; 250 g ai/ha) of the same compound?
A: Its value is 65.

Q: What about the “Plant response rating: Surinam Grass” value ([3]; 16 g ai/ha) of the same compound?
A: Its value is 0.

Q: What about the “Plant response rating: Surinam Grass” value ([3]; 31 g ai/ha) of the same compound?
A: The value was 35.

Q: And the “Plant response rating: Surinam Grass” value ([3]; 62 g ai/ha)?
A: The value was 35.

Q: And the “Plant response rating: Surinam Grass” value ([3]; 125 g ai/ha)?
A: Its value is 90.

Q: And the “Plant response rating: Surinam Grass” value ([3]; 250 g ai/ha)?
A: The value was 100.

Q: And the “Plant response rating: Arrowleaf Sida” value ([4]; Postemergence, 8 g ai/ha)?
A: Its value is 30.

Q: And the “Plant response rating: Arrowleaf Sida” value ([4]; Postemergence, 16 g ai/ha)?
A: Its value is 40.

Q: And the “Plant response rating: Arrowleaf Sida” value ([4]; Postemergence, 31 g ai/ha)?
A: Its value is 40.

Q: What about the “Plant response rating: Arrowleaf Sida” value ([4]; Postemergence, 62 g ai/ha) of the same compound?
A: The value was 50.

Q: And the “Plant response rating: Arrowleaf Sida” value ([4]; Postemergence, 125 g ai/ha)?
A: Its value is 50.

Q: And the “Plant response rating: Arrowleaf Sida” value ([4]; Preemergence, 16 g ai/ha)?
A: Its value is 0.

Q: What about the “Plant response rating: Arrowleaf Sida” value ([4]; Preemergence, 31 g ai/ha) of the same compound?
A: Its value is 0.

Q: And the “Plant response rating: Arrowleaf Sida” value ([4]; Preemergence, 62 g ai/ha)?
A: The value was 0.

Q: And the “Plant response rating: Arrowleaf Sida” value ([4]; Preemergence, 125 g ai/ha)?
A: The value was 15.

Q: What about the “Plant response rating: Arrowleaf Sida” value ([4]; Preemergence, 250 g ai/ha) of the same compound?
A: Its value is 50.

Q: And the “Plant response rating: Pigweed, Palmer” value ([5]; Postemergence, 8 g ai/ha)?
A: The value was 90.

Q: What about the “Plant response rating: Pigweed, Palmer” value ([5]; Postemergence, 16 g ai/ha) of the same compound?
A: The value was 90.

Q: And the “Plant response rating: Pigweed, Palmer” value ([5]; Postemergence, 31 g ai/ha)?
A: Its value is 90.

Q: What about the “Plant response rating: Pigweed, Palmer” value ([5]; Postemergence, 62 g ai/ha) of the same compound?
A: The value was 95.

Q: What about the “Plant response rating: Pigweed, Palmer” value ([5]; Postemergence, 125 g ai/ha) of the same compound?
A: The value was 100.

Q: What about the “Plant response rating: Pigweed, Palmer” value ([5]; Preemergence, 16 g ai/ha) of the same compound?
A: Its value is 65.

Q: What about the “Plant response rating: Pigweed, Palmer” value ([5]; Preemergence, 31 g ai/ha) of the same compound?
A: The value was 100.

Q: What about the “Plant response rating: Pigweed, Palmer” value ([5]; Preemergence, 62 g ai/ha) of the same compound?
A: The value was 100.

Q: And the “Plant response rating: Pigweed, Palmer” value ([5]; Preemergence, 125 g ai/ha)?
A: The value was 100.

Q: And the “Plant response rating: Pigweed, Palmer” value ([5]; Preemergence, 250 g ai/ha)?
A: The value was 100.

Q: And the “Plant response rating: Barnyardgrass” value ([6]; Postemergence, 8 g ai/ha)?
A: Its value is 10.

Q: What about the “Plant response rating: Barnyardgrass” value ([6]; Postemergence, 16 g ai/ha) of the same compound?
A: The value was 10.

Q: And the “Plant response rating: Barnyardgrass” value ([6]; Postemergence, 31 g ai/ha)?
A: The value was 20.

Q: And the “Plant response rating: Barnyardgrass” value ([6]; Postemergence, 62 g ai/ha)?
A: Its value is 25.

Q: What about the “Plant response rating: Barnyardgrass” value ([6]; Postemergence, 125 g ai/ha) of the same compound?
A: The value was 30.

Q: What about the “Plant response rating: Barnyardgrass” value ([6]; Preemergence, 16 g ai/ha) of the same compound?
A: Its value is 0.

Q: What about the “Plant response rating: Barnyardgrass” value ([6]; Preemergence, 31 g ai/ha) of the same compound?
A: The value was 0.

Q: And the “Plant response rating: Barnyardgrass” value ([6]; Preemergence, 62 g ai/ha)?
A: Its value is 5.

Q: What about the “Plant response rating: Barnyardgrass” value ([6]; Preemergence, 125 g ai/ha) of the same compound?
A: Its value is 25.

Q: What about the “Plant response rating: Barnyardgrass” value ([6]; Preemergence, 250 g ai/ha) of the same compound?
A: Its value is 100.

Q: And the “Plant response rating: Panicum, Fall” value ([7]; Postemergence, 8 g ai/ha)?
A: The value was 5.

Q: What about the “Plant response rating: Panicum, Fall” value ([7]; Postemergence, 16 g ai/ha) of the same compound?
A: The value was 10.

Q: What about the “Plant response rating: Panicum, Fall” value ([7]; Postemergence, 31 g ai/ha) of the same compound?
A: The value was 10.

Q: And the “Plant response rating: Panicum, Fall” value ([7]; Postemergence, 62 g ai/ha)?
A: Its value is 20.

Q: What about the “Plant response rating: Panicum, Fall” value ([7]; Postemergence, 125 g ai/ha) of the same compound?
A: Its value is 25.

Q: What about the “Plant response rating: Panicum, Fall” value ([7]; Preemergence, 16 g ai/ha) of the same compound?
A: Its value is 95.

Q: And the “Plant response rating: Panicum, Fall” value ([7]; Preemergence, 31 g ai/ha)?
A: Its value is 95.

Q: And the “Plant response rating: Panicum, Fall” value ([7]; Preemergence, 62 g ai/ha)?
A: The value was 100.

Q: And the “Plant response rating: Panicum, Fall” value ([7]; Preemergence, 125 g ai/ha)?
A: Its value is 100.

Q: What about the “Plant response rating: Panicum, Fall” value ([7]; Preemergence, 250 g ai/ha) of the same compound?
A: The value was 100.

Q: What about the “Plant response rating: Beggarticks” value ([8]; Postemergence, 8 g ai/ha) of the same compound?
A: The value was 10.

Q: What about the “Plant response rating: Beggarticks” value ([8]; Postemergence, 16 g ai/ha) of the same compound?
A: Its value is 10.

Q: And the “Plant response rating: Beggarticks” value ([8]; Postemergence, 31 g ai/ha)?
A: The value was 20.

Q: What about the “Plant response rating: Beggarticks” value ([8]; Postemergence, 62 g ai/ha) of the same compound?
A: The value was 30.

Q: And the “Plant response rating: Beggarticks” value ([8]; Postemergence, 125 g ai/ha)?
A: The value was 35.

Q: And the “Plant response rating: Beggarticks” value ([8]; Preemergence, 16 g ai/ha)?
A: The value was 0.

Q: And the “Plant response rating: Beggarticks” value ([8]; Preemergence, 31 g ai/ha)?
A: Its value is 0.

Q: And the “Plant response rating: Beggarticks” value ([8]; Preemergence, 125 g ai/ha)?
A: The value was 80.

Q: And the “Plant response rating: Crabgrass, Brazil” value ([9]; Postemergence, 8 g ai/ha)?
A: Its value is 10.

Q: What about the “Plant response rating: Crabgrass, Brazil” value ([9]; Postemergence, 16 g ai/ha) of the same compound?
A: Its value is 15.

Q: And the “Plant response rating: Crabgrass, Brazil” value ([9]; Postemergence, 31 g ai/ha)?
A: Its value is 25.

Q: And the “Plant response rating: Crabgrass, Brazil” value ([9]; Postemergence, 62 g ai/ha)?
A: Its value is 30.

Q: And the “Plant response rating: Crabgrass, Brazil” value ([9]; Postemergence, 125 g ai/ha)?
A: Its value is 40.

Q: What about the “Plant response rating: Crabgrass, Brazil” value ([9]; Preemergence, 16 g ai/ha) of the same compound?
A: The value was 90.

Q: What about the “Plant response rating: Crabgrass, Brazil” value ([9]; Preemergence, 31 g ai/ha) of the same compound?
A: Its value is 100.

Q: What about the “Plant response rating: Crabgrass, Brazil” value ([9]; Preemergence, 62 g ai/ha) of the same compound?
A: Its value is 100.

Q: And the “Plant response rating: Crabgrass, Brazil” value ([9]; Preemergence, 125 g ai/ha)?
A: The value was 100.

Q: What about the “Plant response rating: Crabgrass, Brazil” value ([9]; Preemergence, 250 g ai/ha) of the same compound?
A: Its value is 100.
